Marks after values point to notes of the source that are not given here.
How the values were obtained:
[1] = system: rPPARδ; assay: PPAR agonist reporter assay (Gal4 hybrid receptor, luciferase); type: cell-based, rat
Procedure: (§1) This study utilized proprietary reporter cells expressing a hybrid receptor comprising the N-terminal Gal4 DNA binding domain fused to the ligand binding domain of the specific human nuclear receptor (hPPARα, hPPARδ, and hPPARγ) and rat nuclear receptor (rPPARα, rPPARδ, and rPPARγ). The reporter vectors used in this Example comprise the firefly luciferase gene functionally linked to the Gal4 upstream activation sequence.
Nuclear Receptor assay was performed by dispensing 100 μL of a suspension of Reporter Cells in Cell Recovery Medium (CRM) containing 10% charcoal stripped FBS into each well of a white 96-well plate. Test compounds were diluted using compound screening medium (CSM) containing 10% charcoal stripped FBS to generate “2×-concentration” treatment media. Immediately after this dilution step, 100 μL of each diluted 2×-concentration treatment medium was dispensed (in triplicate) into the Reporter Cell-containing assay wells.
After incubation at 37° C. for 24 hours, the treatment media was discarded. 100 μL of Luciferase Detection Reagent substrate was added to each well and RLUs were quantified from each well to determine nuclear receptor activities.

[2] = system: rPPARδ; assay: PPAR antagonist reporter assay (reference agonist at EC80); type: cell-based, rat
Procedure: as §1
(§2) Nuclear Receptor assay was performed by suspending Reporter Cells in CRM containing 10% charcoal stripped FBS. 2×-EC80 concentrations of the appropriate reference agonist were then added to the Reporter Cell suspension, and 100 μL of the mixture dispensed into wells of a white 96-well plate. Test compounds were diluted using compound screening medium (CSM) containing 10% charcoal stripped FBS to generate “2×-concentration” treatment media. Immediately after this dilution step, 100 μL of each diluted 2×-concentration treatment medium was dispensed (in triplicate) into the Reporter Cell-containing assay wells.
(§3) After incubation at 37° C. for 24 hours, the treatment media was discarded. Each well was rinsed once with LCM Buffer; LCM substrate was then added. After incubation for 30 minutes at 37° C., fluorescence was measured to determine the relative number of live cells per assay well. LCM substrate was then discarded and 100 μL of Luciferase Detection Reagent substrate was added to each well. RLUs were quantified from each well to determine nuclear receptor activities.

[3] = molecular target: T1, rPPARγ (Rattus norvegicus, UniProt O88275); assay: as above; type: cell-based
T1 construct: expressed in transfected cells
T1 sequence (O88275 238-503 limits assumed): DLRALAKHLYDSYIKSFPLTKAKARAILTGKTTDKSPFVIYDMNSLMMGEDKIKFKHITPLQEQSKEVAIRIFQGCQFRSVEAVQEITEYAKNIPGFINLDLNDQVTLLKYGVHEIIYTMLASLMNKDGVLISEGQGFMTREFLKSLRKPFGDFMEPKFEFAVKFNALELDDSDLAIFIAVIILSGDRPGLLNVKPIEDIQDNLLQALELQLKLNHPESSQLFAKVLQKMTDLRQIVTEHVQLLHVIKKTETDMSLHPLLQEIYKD
Procedure: as §1, §2, §3

[4] = molecular target: T2, hPPARα (Homo sapiens, UniProt Q07869); assay: as above; type: cell-based
T2 construct: expressed in transfected cells
T2 sequence (Q07869 239-466 limits assumed): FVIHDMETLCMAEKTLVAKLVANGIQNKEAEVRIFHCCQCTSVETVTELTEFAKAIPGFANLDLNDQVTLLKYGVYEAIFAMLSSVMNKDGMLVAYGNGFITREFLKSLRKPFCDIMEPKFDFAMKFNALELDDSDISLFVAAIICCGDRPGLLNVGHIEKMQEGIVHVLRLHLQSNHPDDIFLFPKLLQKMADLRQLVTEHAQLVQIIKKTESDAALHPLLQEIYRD
Procedure: as §1, §2, §3

[5] = system: hPPARγ Reporter Cells; assay: Live cell multiplex assay; type: cell-based
Procedure: as §1, §2, §3

[6] = system: rPPARδ Reporter Cells; assay: Live cell multiplex assay; type: cell-based
Procedure: as §1, §2, §3

[7] = system: rPPARγ Reporter Cells; assay: Live cell multiplex assay; type: cell-based
Procedure: as §1, §2, §3

[8] = system: hPPARα Reporter Cells; assay: Live cell multiplex assay; type: cell-based
Procedure: as §1, §2, §3

[9] = system: rPPARα Reporter Cells; assay: Live cell multiplex assay; type: cell-based
Procedure: as §1, §2, §3

CC/C=C\C/C=C\C/C=C\C/C=C\C/C=C\CCCC(=O)OCC [EPA-EE, EPA ethyl ester, reference compound]
Fold-Activation (vs. 0.10% DMSO) rPPAR-δ ([1]; 137 nM): 1.3 fold
Fold-Activation (vs. 0.10% DMSO) rPPAR-δ ([1]; 412 nM): 1.3 fold
Fold-Activation (vs. 0.10% DMSO) rPPAR-δ ([1]; 1,235 nM): 1.2 fold
Fold-Activation (vs. 0.10% DMSO) rPPAR-δ ([1]; 3,704 nM): 1.5 fold
Fold-Activation (vs. 0.10% DMSO) rPPAR-δ ([1]; 11,111 nM): 1.4 fold
Fold-Activation (vs. 0.10% DMSO) rPPAR-δ ([1]; 33,333 nM): 1.5 fold
Fold-Activation (vs. 0.10% DMSO) rPPAR-δ ([1]; 100,000 nM): 2.0 fold
Fold-Activation (vs. 0.10% DMSO) rPPAR-δ ([1]; 300,000 nM): 3.6* fold
% Inhibition of agonist-stimulated receptor activity vs. 0.10% DMSO, rPPAR-δ ([2]; 137 nM): 26%
% Inhibition of agonist-stimulated receptor activity vs. 0.10% DMSO, rPPAR-δ ([2]; 412 nM): 4.0%
% Inhibition of agonist-stimulated receptor activity vs. 0.10% DMSO, rPPAR-δ ([2]; 1,235 nM): 5.7%
% Inhibition of agonist-stimulated receptor activity vs. 0.10% DMSO, rPPAR-δ ([2]; 3,704 nM): 8.1%
% Inhibition of agonist-stimulated receptor activity vs. 0.10% DMSO, rPPAR-δ ([2]; 11,111 nM): 3.7%
% Inhibition of agonist-stimulated receptor activity vs. 0.10% DMSO, rPPAR-δ ([2]; 33,333 nM): 7.2%
% Inhibition of agonist-stimulated receptor activity vs. 0.10% DMSO, rPPAR-δ ([2]; 100,000 nM): 10%
% Inhibition of agonist-stimulated receptor activity vs. 0.10% DMSO, rPPAR-δ ([2]; 300,000 nM): 36%
inhibition of rat PPARs (in words), rPPARδ ([2]; at higher test concentrations): does not exhibit similar inhibitory activity
% Inhibition of agonist-stimulated receptor activity vs. 0.10% DMSO, rPPAR-γ ([3]; 137 nM): 9.6%
% Inhibition of agonist-stimulated receptor activity vs. 0.10% DMSO, rPPAR-γ ([3]; 412 nM): −7.4%
% Inhibition of agonist-stimulated receptor activity vs. 0.10% DMSO, rPPAR-γ ([3]; 1,235 nM): −7.3%
% Inhibition of agonist-stimulated receptor activity vs. 0.10% DMSO, rPPAR-γ ([3]; 3,704 nM): −0.55%
% Inhibition of agonist-stimulated receptor activity vs. 0.10% DMSO, rPPAR-γ ([3]; 11,111 nM): 2.8%
% Inhibition of agonist-stimulated receptor activity vs. 0.10% DMSO, rPPAR-γ ([3]; 33,333 nM): 5.0%
% Inhibition of agonist-stimulated receptor activity vs. 0.10% DMSO, rPPAR-γ ([3]; 100,000 nM): 6.2%
% Inhibition of agonist-stimulated receptor activity vs. 0.10% DMSO, rPPAR-γ ([3]; 300,000 nM): 7.0%
inhibition of rat PPARs (in words), rPPARγ ([3]; at higher test concentrations): does not exhibit similar inhibitory activity
% Inhibition of agonist-stimulated receptor activity vs. 0.10% DMSO, hPPAR-α ([4]; 137 nM): 35%
% Inhibition of agonist-stimulated receptor activity vs. 0.10% DMSO, hPPAR-α ([4]; 412 nM): 20%
% Inhibition of agonist-stimulated receptor activity vs. 0.10% DMSO, hPPAR-α ([4]; 1,235 nM): 18%
% Inhibition of agonist-stimulated receptor activity vs. 0.10% DMSO, hPPAR-α ([4]; 3,704 nM): 17%
% Inhibition of agonist-stimulated receptor activity vs. 0.10% DMSO, hPPAR-α ([4]; 11,111 nM): 11%
% Inhibition of agonist-stimulated receptor activity vs. 0.10% DMSO, hPPAR-α ([4]; 33,333 nM): 10%
% Inhibition of agonist-stimulated receptor activity vs. 0.10% DMSO, hPPAR-α ([4]; 100,000 nM): 7.1%
% Inhibition of agonist-stimulated receptor activity vs. 0.10% DMSO, hPPAR-α ([4]; 300,000 nM): 2.8%
inhibition of human PPARs (in words), hPPARα ([4]; at higher test concentrations): does not exhibit similar inhibitory activity
% Live cells vs. 0.10% DMSO, hPPAR-γ ([5]; 137 nM): 88%
% Live cells vs. 0.10% DMSO, hPPAR-γ ([5]; 412 nM): 99%
% Live cells vs. 0.10% DMSO, hPPAR-γ ([5]; 1,235 nM): 101%
% Live cells vs. 0.10% DMSO, hPPAR-γ ([5]; 3,704 nM): 101%
% Live cells vs. 0.10% DMSO, hPPAR-γ ([5]; 11,111 nM): 101%
% Live cells vs. 0.10% DMSO, hPPAR-γ ([5]; 33,333 nM): 102%
% Live cells vs. 0.10% DMSO, hPPAR-γ ([5]; 100,000 nM): 103%
% Live cells vs. 0.10% DMSO, hPPAR-γ ([5]; 300,000 nM): 92%
% Live cells vs. 0.10% DMSO, rPPAR-δ ([6]; 137 nM): 100%
% Live cells vs. 0.10% DMSO, rPPAR-δ ([6]; 412 nM): 94%
% Live cells vs. 0.10% DMSO, rPPAR-δ ([6]; 1,235 nM): 98%
% Live cells vs. 0.10% DMSO, rPPAR-δ ([6]; 3,704 nM): 95%
% Live cells vs. 0.10% DMSO, rPPAR-δ ([6]; 11,111 nM): 100%
% Live cells vs. 0.10% DMSO, rPPAR-δ ([6]; 33,333 nM): 99%
% Live cells vs. 0.10% DMSO, rPPAR-δ ([6]; 100,000 nM): 101%
% Live cells vs. 0.10% DMSO, rPPAR-δ ([6]; 300,000 nM): 102%
% Live cells vs. 0.10% DMSO, rPPAR-γ ([7]; 137 nM): 97%
% Live cells vs. 0.10% DMSO, rPPAR-γ ([7]; 412 nM): 101%
% Live cells vs. 0.10% DMSO, rPPAR-γ ([7]; 1,235 nM): 102%
% Live cells vs. 0.10% DMSO, rPPAR-γ ([7]; 3,704 nM): 101%
% Live cells vs. 0.10% DMSO, rPPAR-γ ([7]; 11,111 nM): 100%
% Live cells vs. 0.10% DMSO, rPPAR-γ ([7]; 33,333 nM): 101%
% Live cells vs. 0.10% DMSO, rPPAR-γ ([7]; 100,000 nM): 98%
% Live cells vs. 0.10% DMSO, rPPAR-γ ([7]; 300,000 nM): 102%
% Live cells vs. 0.10% DMSO, hPPAR-α ([8]; 137 nM): 99%
% Live cells vs. 0.10% DMSO, hPPAR-α ([8]; 412 nM): 93%
% Live cells vs. 0.10% DMSO, hPPAR-α ([8]; 1,235 nM): 113%
% Live cells vs. 0.10% DMSO, hPPAR-α ([8]; 3,704 nM): 112%
% Live cells vs. 0.10% DMSO, hPPAR-α ([8]; 11,111 nM): 116%
% Live cells vs. 0.10% DMSO, hPPAR-α ([8]; 33,333 nM): 112%
% Live cells vs. 0.10% DMSO, hPPAR-α ([8]; 100,000 nM): 96%
% Live cells vs. 0.10% DMSO, hPPAR-α ([8]; 300,000 nM): 80%
% Live cells vs. 0.10% DMSO, rPPAR-α ([9]; 137 nM): 89%
% Live cells vs. 0.10% DMSO, rPPAR-α ([9]; 412 nM): 98%
% Live cells vs. 0.10% DMSO, rPPAR-α ([9]; 1,235 nM): 102%
% Live cells vs. 0.10% DMSO, rPPAR-α ([9]; 3,704 nM): 103%
% Live cells vs. 0.10% DMSO, rPPAR-α ([9]; 11,111 nM): 102%
% Live cells vs. 0.10% DMSO, rPPAR-α ([9]; 33,333 nM): 100%
% Live cells vs. 0.10% DMSO, rPPAR-α ([9]; 100,000 nM): 95%
% Live cells vs. 0.10% DMSO, rPPAR-α ([9]; 300,000 nM): 94%

From patent publication US20190216761A1, “COMPOSITIONS COMPRISING 15-HEPE AND METHODS OF USING THE SAME” (Afimmune Limited, priority 2015, published 2019)
